Data as given in patent publication US12139492B2 (Endotarget Inc., priority 2021, dated 2024).
Where two headings read alike, the source gives them in different places.

What was measured:
BTK = BTK (Homo sapiens, UniProt Q06187); assay: Degradation of BTK protein in Namalwa cells (Western blot; DC50, Dmax); conditions: for DC50: cell line not given
Mino cells = assay: Antiproliferative effect, MTS cell viability assay, Mino cells; assay type: cell-based; conditions: Homo sapiens, MINO, Mino mantle cell lymphoma cells; read-out: IC50 (anti-proliferation) Mino cells
In short: (§1)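 Mino and JeKo-1 mantle B-cell lymphoma lines were exposed to compound at 0, 0.001, 0.01, 0.1, 1 and 10 μM for 72 h. Viability was read by MTS reduction to formazan, measured as absorbance at 490 nm.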

JeKo-1 cells = assay: Antiproliferative effect, MTS cell viability assay, JeKo-1 cells; assay type: cell-based; conditions: Homo sapiens; JeKo-1 mantle cell lymphoma cells; read-out: IC50 (anti-proliferation) JeKO-1 cells
In short: as §1

[1] = read-out: DC50 (BTK degradation), concentration giving 50% reduction of BTK expression level
[2] = read-out: Dmax (BTK degradation)

Chain of BTK (Q06187 whole entry): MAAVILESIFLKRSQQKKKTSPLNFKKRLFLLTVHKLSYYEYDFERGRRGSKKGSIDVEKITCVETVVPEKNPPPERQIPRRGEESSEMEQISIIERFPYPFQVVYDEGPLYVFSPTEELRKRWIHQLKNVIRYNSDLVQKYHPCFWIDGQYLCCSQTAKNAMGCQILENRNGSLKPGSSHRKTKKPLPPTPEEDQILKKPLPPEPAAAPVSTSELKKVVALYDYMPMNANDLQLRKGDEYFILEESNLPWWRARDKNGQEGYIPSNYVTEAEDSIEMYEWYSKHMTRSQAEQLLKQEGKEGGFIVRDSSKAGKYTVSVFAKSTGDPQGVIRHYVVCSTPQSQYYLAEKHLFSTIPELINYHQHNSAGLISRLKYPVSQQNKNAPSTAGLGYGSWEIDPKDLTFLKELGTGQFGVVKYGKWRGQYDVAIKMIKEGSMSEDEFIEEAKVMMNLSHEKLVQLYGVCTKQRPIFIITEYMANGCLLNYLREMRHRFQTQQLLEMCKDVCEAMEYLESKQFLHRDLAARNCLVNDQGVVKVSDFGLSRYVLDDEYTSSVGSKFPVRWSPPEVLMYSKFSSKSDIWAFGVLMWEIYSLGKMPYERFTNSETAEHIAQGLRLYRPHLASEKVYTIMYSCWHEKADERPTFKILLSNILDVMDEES

Dmax (BTK) | DC50 (BTK; BTK degradation) | DC50 (BTK; [1]) | Dmax (BTK; [2]) | SMILES | IC50 (Mino cells) | IC50 (JeKo-1 cells)
> 75% | 10 to 50 nM |  |  | Nc1ncnc2c1c(-c1ccc(Oc3ccccc3)cc1)nn2[C@@H]1CCCN(C2CCN(C(=O)N3CCC(CCCN4CCC(c5ccc6c(c5)CN(C5CCC(=O)NC5=O)C6=O)CC4)CC3)CC2)C1 (stereo partly drawn) [Compound 198, 3-(5-(1-(3-(1-((R)-3-(4-amino-3-(4-phenoxyphenyl)-1H-pyrazolo[3,4-d]pyrimidin-1-yl)-[1,4′-bipiperidine]-1′-carbonyl)piperidin-4-yl)propyl)piperidin-4-yl)-1-oxoisoindolin-2-yl)piperidine-2,6-dione] | 1000 to 10000 nM | 1000 to 10000 nM
> 75% | 10 to 50 nM |  |  | NC(=O)c1c(-c2ccc(Oc3ccccc3)cc2)nn2c1NCC[C@H]2C1CCN(C(=O)N2CCN(CCC3CCN(c4ccc5c(c4)CN(C4CCC(=O)NC4=O)C5=O)CC3)CC2)CC1 (stereo partly drawn) [Compound 300, (7S)-7-(1-(4-(2-(1-(2-(2,6-dioxopiperidin-3-yl)-1-oxoisoindolin-5-yl)piperidin-4-yl)ethyl)piperazine-1-carbonyl)piperidin-4-yl)-2-(4-phenoxyphenyl)-4,5,6,7-tetrahydropyrazolo[1,5-a]pyrimidine-3-carboxamide] | 1000 to 10000 nM | 1000 to 10000 nM
> 75% | > 50 nM |  |  | NC(=O)c1c(-c2ccc(Oc3ccccc3)cc2)nn2c1NCC[C@H]2C1CCN(C2CCN(C(=O)N3CCN(Cc4ccc5c(c4)CN(C4CCC(=O)NC4=O)C5=O)CC3)CC2)CC1 (stereo partly drawn) [Compound 380, (7S)-7-(1′-(4-((2-(2,6-dioxopiperidin-3-yl)-1-oxoisoindolin-5-yl)methyl)piperazine-1-carbonyl)-[1,4′-bipiperidin]-4-yl)-2-(4-phenoxyphenyl)-4,5,6,7-tetrahydropyrazolo[1,5-a]pyrimidine-3-carboxamide] | 1000 to 10000 nM | > 10000 nM
> 90% | 10 to 50 nM |  |  | Nc1ncnc2c1c(-c1ccc(Oc3ccccc3)cc1)nn2C1CCN(C2CCN(C(=O)N3CCC(CCC4CCN(c5ccc6c(c5)C(=O)N(C5CCC(=O)NC5=O)C6=O)CC4)CC3)CC2)CC1 (centres unmarked) [Compound 255, 5-(4-(2-(1-(4-(4-amino-3-(4-phenoxyphenyl)-1H-pyrazolo[3,4-d]pyrimidin-1-yl)-[1,4′-bipiperidine]-1′-carbonyl)piperidin-4-yl)ethyl)piperidin-1-yl)-2-(2,6-dioxopiperidin-3-yl)isoindoline-1,3-dione] | < 1000 nM | 1000 to 10000 nM
 |  | 10 to 50 nM | > 75% | Nc1ncnc2c1c(-c1ccc(Oc3ccccc3)cc1)nn2C1CCN(CCN2CCC(CN3CCN(c4ccc5c(c4)CN(C4CCC(=O)NC4=O)C5=O)CC3)C2)CC1 (centres unmarked) [Compound 456, 3-(5-(4-((1-(2-(4-(4-amino-3-(4-phenoxyphenyl)-1H-pyrazolo[3,4-d]pyrimidin-1-yl)piperidin-1-yl)ethyl)pyrrolidin-3-yl)methyl)piperazin-1-yl)-1-oxoisoindolin-2-yl)piperidine-2,6-dione] | 1000 to 10000 nM | 1000 to 10000 nM
 |  | 10 to 50 nM | > 90% | Nc1ncnc2c1c(-c1ccc(Oc3ccccc3)cc1)nn2C1CCN(CC2CCN(CC3CN(c4ccc5c(c4)CN(C4CCC(=O)NC4=O)C5=O)C3)CC2)CC1 (centres unmarked) [Compound 430, 3-(5-(3-((4-((4-(4-amino-3-(4-phenoxyphenyl)-1H-pyrazolo[3,4-d]pyrimidin-1-yl)piperidin-1-yl)methyl)piperidin-1-yl)methyl)azetidin-1-yl)-1-oxoisoindolin-2-yl)piperidine-2,6-dione] | < 1000 nM | < 1000 nM

Further lines, the compound ahead of its results:

SMILES | Dmax (BTK) | DC50 (BTK; BTK degradation) | DC50 (BTK; [1]) | Dmax (BTK; [2]) | IC50 (Mino cells) | IC50 (JeKo-1 cells)
Nc1ncnc2c1c(-c1ccc(Oc3ccccc3)cc1)nn2C1CCN(C[C@@H]2CCN(C[C@@H]3CCN(c4ccc5c(c4)C(=O)N(C4CCC(=O)NC4=O)C5=O)C3)C2)CC1 (stereo partly drawn) [Compound 447c, 5-((S)-3-(((S)-3-((4-(4-amino-3-(4-phenoxyphenyl)-1H-pyrazolo[3,4-d]pyrimidin-1-yl)piperidin-1-yl)methyl)pyrrolidin-1-yl)methyl)pyrrolidin-1-yl)-2-(2,6-dioxopiperidin-3-yl)isoindoline-1,3-dione] |  |  | < 10 nM | > 90% | 1000 to 10000 nM | 1000 to 10000 nM
NC(=O)c1c(-c2ccc(Oc3ccccc3)cc2)nn2c1NCC[C@H]2C1CCN(C2CCN(C(=O)N3CCN(C4CCN(c5ccc6c(c5)C(=O)N(C5CCC(=O)NC5=O)C6=O)CC4)CC3)CC2)CC1 (stereo partly drawn) [Compound 385, (7S)-7-(1′-(4-(1-(2-(2,6-dioxopiperidin-3-yl)-1,3-dioxoisoindolin-5-yl)piperidin-4-yl)piperazine-1-carbonyl)-[1,4′-bipiperidin]-4-yl)-2-(4-phenoxyphenyl)-4,5,6,7-tetrahydropyrazolo[1,5-a]pyrimidine-3-carboxamide] | > 90% | < 10 nM |  |  | < 1000 nM | 1000 to 10000 nM
NC(=O)c1c(-c2ccc(Oc3ccccc3)cc2)nn2c1NCCC2C1CCN(C2CCN(CCN3CCN(c4ccc5c(c4)C(=O)N(C4CCC(=O)NC4=O)C5=O)CC3)CC2)CC1 (centres unmarked) [Compound 307, 7-(1′-(2-(4-(2-(2,6-dioxopiperidin-3-yl)-1,3-dioxoisoindolin-5-yl)piperazin-1-yl)ethyl)-[1,4′-bipiperidin]-4-yl)-2-(4-phenoxyphenyl)-4,5,6,7-tetrahydropyrazolo[1,5-a]pyrimidine-3-carboxamide] | > 75% | > 50 nM |  |  | 1000 to 10000 nM | > 10000 nM
Nc1ncnc2c1c(-c1ccc(Oc3ccccc3)cc1)nn2C1CCN(C2CCN(CC3CCN(c4ccc(N5CCC(=O)NC5=O)cc4)CC3)C2)CC1 (centres unmarked) [Compound 573, 1-(4-(4-((3-(4-(4-amino-3-(4-phenoxyphenyl)-1H-pyrazolo[3,4-d]pyrimidin-1-yl)piperidin-1-yl)pyrrolidin-1-yl)methyl)piperidin-1-yl)phenyl)dihydropyrimidine-2,4(1H,3H)-dione] |  |  | < 10 nM | > 75% | 1000 to 10000 nM | < 1000 nM
Nc1ncnc2c1c(-c1ccc(Oc3ccccc3)cc1)nn2C1CCN(CCCN2CCC(CC3CCN(c4ccc(NC5CCC(=O)NC5=O)cc4)CC3)CC2)CC1 (centres unmarked) [Compound 561, 3-((4-(4-((1-(3-(4-(4-amino-3-(4-phenoxyphenyl)-1H-pyrazolo[3,4-d]pyrimidin-1-yl)piperidin-1-yl)propyl)piperidin-4-yl)methyl)piperidin-1-yl)phenyl)amino)piperidine-2,6-dione] |  |  | 10 to 50 nM | > 90% | < 1000 nM | < 1000 nM
NC1=NC=NC2C1C(c1ccc(Oc3ccccc3)cc1)=NN2[C@@H]1CCCN(C(=O)N2CC(C3CN(c4ccc5c(c4)CN(C4CCC(=O)NC4=O)C5=O)C3)C2)C1 (stereo partly drawn) [Compound 498, 3-(5-(1′-((3R)-3-(4-amino-3-(4-phenoxyphenyl)-3a,7a-dihydro-1H-pyrazolo[3,4-d]pyrimidin-1-yl)piperidin-1-carbonyl)-[3,3′-biazetidin]-1-yl)-1-oxoisoindolin-2-yl)piperidine-2,6-dione] |  |  | < 10 nM | > 90% | < 1000 nM | < 1000 nM
Nc1ncnc2c1c(-c1ccc(Oc3ccccc3)cc1)nn2[C@@H]1CCCN(C2CCN(C(=O)NC3CCC(=O)NC3=O)CC2)C1 (stereo partly drawn) [Compound 517, (3R)-3-(4-amino-3-(4-phenoxyphenyl)-1H-pyrazolo[3,4-d]pyrimidin-1-yl)-N-(2,6-dioxopiperidin-3-yl)-[1,4′-bipiperidine]-1′-carboxamide] |  |  | < 10 nM | > 75% | 1000 to 10000 nM | 1000 to 10000 nM
NC1=NC=NC2C1C(c1ccc(Oc3ccccc3)cc1)=NN2[C@@H]1CCCN(C(=O)N2CCN(C3CN(c4ccc5c(c4)CN(C4CCC(=O)NC4=O)C5=O)C3)CC2)C1 (stereo partly drawn) [Compound 506, 3-(5-(3-(4-((3R)-3-(4-amino-3-(4-phenoxyphenyl)-3a,7a-dihydro-1H-pyrazolo[3,4-d]pyrimidin-1-yl)piperidine-1-carbonyl)piperazin-1-yl)azetidin-1-yl)-1-oxoisoindolin-2-yl)piperidine-2,6-dione] |  |  | 10 to 50 nM | > 90% | < 1000 nM | < 1000 nM
NC(=O)c1c(-c2ccc(Oc3ccccc3)cc2)nn2c1NCCC2C1CCN(C2CCN(CCN3CCN(c4ccc5c(c4)CN(C4CCC(=O)NC4=O)C5=O)CC3)CC2)CC1 (centres unmarked) [Compound 308, 7-(1′-(2-(4-(2-(2,6-dioxopiperidin-3-yl)-1-oxoisoindolin-5-yl)piperazin-1-yl)ethyl)-[1,4′-bipiperidin]-4-yl)-2-(4-phenoxyphenyl)-4,5,6,7-tetrahydropyrazolo[1,5-a]pyrimidine-3-carboxamide] | > 75% | 10 to 50 nM |  |  | 1000 to 10000 nM | > 10000 nM
NC(=O)c1c(-c2ccc(Oc3ccccc3)cc2)nn2c1NCCC2C1CCN(CC2CCN(CCC3CCN(c4ccc5c(c4)CN(C4CCC(=O)NC4=O)C5=O)CC3)CC2)CC1 (centres unmarked) [Compound 318, 7-(1-((1-(2-(1-(2-(2,6-dioxopiperidin-3-yl)-1-oxoisoindolin-5-yl)piperidin-4-yl)ethyl)piperidin-4-yl)methyl)piperidin-4-yl)-2-(4-phenoxyphenyl)-4,5,6,7-tetrahydropyrazolo[1,5-a]pyrimidine-3-carboxamide] | > 75% | > 50 nM |  |  | 1000 to 10000 nM | > 10000 nM
Nc1ncnc2c1c(-c1ccc(Oc3ccccc3)cc1)nn2[C@@H]1CCCN(C(=O)N2CC(N3CCN(c4ccc5c(c4)C(=O)N(C4CCC(=O)NC4=O)C5=O)CC3)C2)C1 (stereo partly drawn) [Compound 487, 5-(4-(1-((R)-3-(4-amino-3-(4-phenoxyphenyl)-1H-pyrazolo[3,4-d]pyrimidin-1-yl)piperidine-1-carbonyl)azetidin-3-yl)piperazin-1-yl)-2-(2,6-dioxopiperidin-3-yl)isoindoline-1,3-dione] |  |  | < 10 nM | > 90% | < 1000 nM | < 1000 nM
